According to paper PMC9814781, “Structure-based design of a dual-warhead covalent inhibitor of FGFR4” (Communications Chemistry, 2022):

Key:
EPHA7 = EPHA7 (Homo sapiens, UniProt Q15375); assay: Kinase selectivity profiling
NEK2 = NEK2 (Homo sapiens, UniProt P51955); assay: Kinase selectivity profiling
LYNa = LYNa (Homo sapiens, UniProt P07948); assay: Kinase selectivity profiling
PLK3 = PLK3 (Homo sapiens, UniProt Q9H4B4); assay: Kinase selectivity profiling
FGFR3 = FGFR3 (Homo sapiens, UniProt P22607); assay: Kinase inhibition assay (ADP-Glo); format: biochemical; design: FGFR3 (residues 450–758); 6xHis + PreScission site (N, cleaved yes); made in house; host or cells: Escherichia coli Rosseta
Chain of FGFR3 (P22607 450-758): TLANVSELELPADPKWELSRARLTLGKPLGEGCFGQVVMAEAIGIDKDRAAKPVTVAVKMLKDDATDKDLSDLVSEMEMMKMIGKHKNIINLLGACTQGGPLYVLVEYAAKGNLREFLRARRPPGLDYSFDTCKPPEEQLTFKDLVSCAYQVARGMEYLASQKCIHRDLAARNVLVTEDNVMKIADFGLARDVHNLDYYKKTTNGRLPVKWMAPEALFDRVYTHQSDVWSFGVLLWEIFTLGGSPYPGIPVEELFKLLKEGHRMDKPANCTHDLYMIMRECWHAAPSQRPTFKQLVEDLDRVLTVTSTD
Description: Wild-type FGFRs and mutant FGFRs were prepared as previously described[25]–[27]. In brief, the kinase domains of human FGFR1 (residues 456–765), FGFR2 (residues 453–770), FGFR3 (residues 450–758), and FGFR4 (residues 445–753) were cloned into a modified pET28a expression vector and then transfected into Escherichia coli Rosseta cells. The N-terminal of the recombinant proteins were contained a 6xHis tag followed by a PreScission cleavage site for FGFR1, FGFR2, FGFR3, and FGFR4. Site-directed mutagenesis of FGFR4 was generated according to the ClonExpress II One Step Cloning Kit (Vazyme) using the pET28a-FGFR4 plasmid as the template. These mutants were confirmed by DNA sequencing (Tsingke, Changsha, China). For crystallization experiments, the wild-type FGFR4 plasmid was co-expressed with untagged YOPH to obtain non-phosphorylated proteins. The proteins were first purified by Ni-NTA affinity chromatography. […]
All kinase inhibition assays were performed with optimized kinase assay buffer consisting of 40 mM Tris-HCl pH 7.5, 20 mM MgCl2, 20 mM NaCl, 0.1 mg/mL BSA, 1 mM TCEP, and 4% DMSO. […] Fluorescence was measured on a multimode plate reader (Perkin-Elmer) using a chemiluminescence program after the addition of the detection reagent. IC50 values were determined using a three-parameter log [Inhibitor] versus response model in GraphPad Prism software.

AMPKα1/β1/γ1 = AMPKα1/β1/γ1 (Homo sapiens, UniProt Q13131); assay: Kinase selectivity profiling
JNK3 = JNK3 (Homo sapiens, UniProt P53779); assay: Kinase selectivity profiling
BRAF[V600E] = BRAF[V600E] (Homo sapiens, UniProt P15056, V600E); assay: Kinase selectivity profiling
MINK = MINK (Homo sapiens, UniProt Q8N4C8); assay: Kinase selectivity profiling
FAK = FAK (Homo sapiens, UniProt Q05397); assay: Kinase selectivity profiling
EPHA3 = EPHA3 (Homo sapiens, UniProt P29320); assay: Kinase selectivity profiling
RSK1 = RSK1 (Homo sapiens, UniProt Q15418); assay: Kinase selectivity profiling
Chain of RSK1 (Q15418 whole entry): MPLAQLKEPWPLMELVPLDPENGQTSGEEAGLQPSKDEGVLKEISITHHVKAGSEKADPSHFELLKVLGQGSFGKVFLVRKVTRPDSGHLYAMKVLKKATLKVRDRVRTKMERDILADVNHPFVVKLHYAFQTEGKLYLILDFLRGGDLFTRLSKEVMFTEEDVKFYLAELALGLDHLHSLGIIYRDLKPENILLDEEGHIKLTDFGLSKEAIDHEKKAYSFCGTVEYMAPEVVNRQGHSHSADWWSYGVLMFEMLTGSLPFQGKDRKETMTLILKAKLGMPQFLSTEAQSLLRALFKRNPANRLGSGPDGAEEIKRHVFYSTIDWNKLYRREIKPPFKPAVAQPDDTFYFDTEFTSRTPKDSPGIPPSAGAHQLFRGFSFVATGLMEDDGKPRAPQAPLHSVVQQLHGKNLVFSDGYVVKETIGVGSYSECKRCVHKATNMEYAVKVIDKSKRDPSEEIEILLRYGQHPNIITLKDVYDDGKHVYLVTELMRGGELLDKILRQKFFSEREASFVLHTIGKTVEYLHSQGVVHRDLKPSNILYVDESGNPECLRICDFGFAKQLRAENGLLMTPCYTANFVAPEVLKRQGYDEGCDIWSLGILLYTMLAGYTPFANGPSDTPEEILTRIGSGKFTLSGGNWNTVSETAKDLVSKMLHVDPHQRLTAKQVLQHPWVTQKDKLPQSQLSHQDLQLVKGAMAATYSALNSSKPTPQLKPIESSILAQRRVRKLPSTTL

AKT1 = AKT1 (Homo sapiens, UniProt P31749); assay: Kinase selectivity profiling
MUSK = MUSK (Homo sapiens, UniProt O15146); assay: Kinase selectivity profiling
JAK1 = JAK1 (Homo sapiens, UniProt P23458); assay: Kinase selectivity profiling
AKT2 = AKT2 (Homo sapiens, UniProt P31751); assay: Kinase selectivity profiling
Chain of AKT2 (P31751 whole entry): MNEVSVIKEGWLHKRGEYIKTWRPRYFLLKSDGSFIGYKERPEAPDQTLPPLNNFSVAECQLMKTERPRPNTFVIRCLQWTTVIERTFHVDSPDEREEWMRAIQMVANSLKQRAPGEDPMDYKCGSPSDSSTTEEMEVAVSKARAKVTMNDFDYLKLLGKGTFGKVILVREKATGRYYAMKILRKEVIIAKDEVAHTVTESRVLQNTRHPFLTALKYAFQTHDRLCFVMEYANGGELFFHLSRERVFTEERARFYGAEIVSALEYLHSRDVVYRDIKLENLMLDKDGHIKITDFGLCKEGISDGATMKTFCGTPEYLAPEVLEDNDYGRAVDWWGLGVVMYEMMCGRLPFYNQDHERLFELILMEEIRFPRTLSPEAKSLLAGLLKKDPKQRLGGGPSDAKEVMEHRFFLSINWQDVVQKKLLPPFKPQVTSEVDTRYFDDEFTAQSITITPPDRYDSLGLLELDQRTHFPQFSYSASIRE

RSK4 = RSK4 (Homo sapiens, UniProt Q9UK32); assay: Kinase selectivity profiling
DYRK3 = DYRK3 (Homo sapiens, UniProt O43781); assay: Kinase selectivity profiling
ITK = ITK (Homo sapiens, UniProt Q08881); assay: Kinase selectivity profiling
ACK = ACK (Homo sapiens, UniProt Q07912); assay: Kinase selectivity profiling
PDGFRβ = PDGFRβ (Homo sapiens, UniProt P09619); assay: Kinase selectivity profiling
JNK2 = JNK2 (Homo sapiens, UniProt P45984); assay: Kinase selectivity profiling
Her4(ERBB4) = Her4(ERBB4) (Homo sapiens, UniProt Q15303); assay: Kinase selectivity profiling
SRM = SRM (Homo sapiens, UniProt Q9H3Y6); assay: Kinase selectivity profiling
DCAMKL1 = DCAMKL1 (Homo sapiens, UniProt O15075); assay: Kinase selectivity profiling
CDK6/CycD1 = CDK6/CycD1 (Homo sapiens, UniProt Q00534); assay: Kinase selectivity profiling
p38δ = p38δ (Homo sapiens, UniProt O15264); assay: Kinase selectivity profiling
Chain of p38δ (O15264 whole entry): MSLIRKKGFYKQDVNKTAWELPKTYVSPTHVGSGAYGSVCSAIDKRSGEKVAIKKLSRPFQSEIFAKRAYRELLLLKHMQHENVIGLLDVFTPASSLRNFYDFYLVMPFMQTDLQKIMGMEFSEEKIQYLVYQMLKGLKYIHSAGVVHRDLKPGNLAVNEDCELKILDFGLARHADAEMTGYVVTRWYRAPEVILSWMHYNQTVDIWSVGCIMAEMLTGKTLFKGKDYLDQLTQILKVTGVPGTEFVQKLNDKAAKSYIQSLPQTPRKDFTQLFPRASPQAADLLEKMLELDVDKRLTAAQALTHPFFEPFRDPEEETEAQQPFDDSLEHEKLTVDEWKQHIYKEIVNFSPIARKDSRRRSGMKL

NEK1 = NEK1 (Homo sapiens, UniProt Q96PY6); assay: Kinase selectivity profiling
Chain of NEK1 (Q96PY6 whole entry): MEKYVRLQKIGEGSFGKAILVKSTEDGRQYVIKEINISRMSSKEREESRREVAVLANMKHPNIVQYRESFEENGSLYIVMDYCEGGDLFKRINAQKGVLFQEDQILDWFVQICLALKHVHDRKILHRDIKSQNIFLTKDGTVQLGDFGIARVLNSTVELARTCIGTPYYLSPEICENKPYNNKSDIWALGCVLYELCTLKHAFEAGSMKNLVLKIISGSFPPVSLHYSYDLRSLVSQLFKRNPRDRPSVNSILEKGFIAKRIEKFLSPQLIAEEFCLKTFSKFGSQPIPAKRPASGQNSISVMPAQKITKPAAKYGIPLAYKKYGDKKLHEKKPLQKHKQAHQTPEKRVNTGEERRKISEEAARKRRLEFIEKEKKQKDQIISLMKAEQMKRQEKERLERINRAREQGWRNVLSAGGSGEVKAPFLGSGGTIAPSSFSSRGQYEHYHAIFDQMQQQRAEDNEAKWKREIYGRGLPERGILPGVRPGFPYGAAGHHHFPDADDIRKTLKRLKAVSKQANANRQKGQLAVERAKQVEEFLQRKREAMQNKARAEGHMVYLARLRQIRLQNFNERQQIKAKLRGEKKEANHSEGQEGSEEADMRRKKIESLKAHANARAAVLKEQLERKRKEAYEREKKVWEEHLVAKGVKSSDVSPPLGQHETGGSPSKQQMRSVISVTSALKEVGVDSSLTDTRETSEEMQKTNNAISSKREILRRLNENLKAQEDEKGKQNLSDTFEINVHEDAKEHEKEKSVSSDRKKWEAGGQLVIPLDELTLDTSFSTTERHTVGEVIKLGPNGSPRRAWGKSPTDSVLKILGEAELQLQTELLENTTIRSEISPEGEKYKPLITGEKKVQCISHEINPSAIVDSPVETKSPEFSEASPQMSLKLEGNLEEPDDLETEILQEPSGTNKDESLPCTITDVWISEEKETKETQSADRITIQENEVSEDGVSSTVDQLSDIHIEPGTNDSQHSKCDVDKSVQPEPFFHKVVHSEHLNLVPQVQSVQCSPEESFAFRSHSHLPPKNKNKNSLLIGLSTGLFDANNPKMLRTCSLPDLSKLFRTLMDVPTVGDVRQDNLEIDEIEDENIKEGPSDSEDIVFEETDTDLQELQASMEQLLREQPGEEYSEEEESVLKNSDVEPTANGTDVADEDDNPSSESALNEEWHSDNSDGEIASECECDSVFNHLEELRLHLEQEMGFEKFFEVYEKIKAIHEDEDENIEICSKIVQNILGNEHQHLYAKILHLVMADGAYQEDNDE

Chain of EPHA7 (Q15375 28-998): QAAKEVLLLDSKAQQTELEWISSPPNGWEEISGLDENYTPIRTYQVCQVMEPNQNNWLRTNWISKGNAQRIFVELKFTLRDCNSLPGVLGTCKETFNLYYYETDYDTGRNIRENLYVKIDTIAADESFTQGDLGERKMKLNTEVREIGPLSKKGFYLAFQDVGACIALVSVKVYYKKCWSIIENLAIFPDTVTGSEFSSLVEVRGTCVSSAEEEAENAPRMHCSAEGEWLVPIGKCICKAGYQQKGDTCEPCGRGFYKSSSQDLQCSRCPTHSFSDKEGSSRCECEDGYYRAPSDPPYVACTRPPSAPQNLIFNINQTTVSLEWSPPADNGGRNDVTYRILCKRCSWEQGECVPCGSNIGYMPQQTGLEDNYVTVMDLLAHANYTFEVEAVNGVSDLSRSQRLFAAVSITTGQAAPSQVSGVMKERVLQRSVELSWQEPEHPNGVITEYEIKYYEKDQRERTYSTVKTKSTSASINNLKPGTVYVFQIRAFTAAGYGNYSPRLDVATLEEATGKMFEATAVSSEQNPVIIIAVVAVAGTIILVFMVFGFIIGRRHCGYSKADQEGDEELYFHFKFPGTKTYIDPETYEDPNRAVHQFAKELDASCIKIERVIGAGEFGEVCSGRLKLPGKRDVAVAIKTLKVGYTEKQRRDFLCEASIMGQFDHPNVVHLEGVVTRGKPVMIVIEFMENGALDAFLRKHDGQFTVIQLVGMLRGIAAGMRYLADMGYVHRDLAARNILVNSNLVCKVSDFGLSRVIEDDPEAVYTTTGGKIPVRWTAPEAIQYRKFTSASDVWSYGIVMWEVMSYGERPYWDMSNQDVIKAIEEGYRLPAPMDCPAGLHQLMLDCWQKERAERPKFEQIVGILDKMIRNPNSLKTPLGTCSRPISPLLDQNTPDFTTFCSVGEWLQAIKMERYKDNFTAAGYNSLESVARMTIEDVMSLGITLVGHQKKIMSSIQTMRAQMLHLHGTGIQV
Chain of PLK3 (Q9H4B4 whole entry, the tested form may be a part): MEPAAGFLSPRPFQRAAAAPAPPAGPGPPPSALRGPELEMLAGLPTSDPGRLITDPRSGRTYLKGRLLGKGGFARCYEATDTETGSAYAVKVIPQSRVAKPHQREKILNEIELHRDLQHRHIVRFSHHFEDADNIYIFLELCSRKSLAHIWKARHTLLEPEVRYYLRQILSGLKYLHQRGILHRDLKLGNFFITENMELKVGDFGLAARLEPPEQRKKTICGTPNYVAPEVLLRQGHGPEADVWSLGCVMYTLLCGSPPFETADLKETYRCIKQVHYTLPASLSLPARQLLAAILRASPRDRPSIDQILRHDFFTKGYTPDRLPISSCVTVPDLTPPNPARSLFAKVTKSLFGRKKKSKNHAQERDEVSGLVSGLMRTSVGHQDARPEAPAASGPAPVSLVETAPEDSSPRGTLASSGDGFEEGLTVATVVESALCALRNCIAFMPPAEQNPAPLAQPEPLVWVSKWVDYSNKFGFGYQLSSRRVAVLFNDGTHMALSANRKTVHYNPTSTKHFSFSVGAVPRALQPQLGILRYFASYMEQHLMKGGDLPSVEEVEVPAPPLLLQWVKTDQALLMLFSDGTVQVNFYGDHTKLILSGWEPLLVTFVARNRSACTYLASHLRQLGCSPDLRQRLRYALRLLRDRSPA

C=CC(=O)Nc1ccccc1Nc1ncc2c(n1)N(CCCN1CCN(C(=O)C=C)CC1)C(=O)N(c1cc(OC)cc(OC)c1)C2 [CXF-009] was tested, and the inhibition at 1 µM (EPHA7) was 2.74%, the inhibition at 1 µM (NEK2) was 17.9% and the inhibition at 1 µM (LYNa) was -2.53%. It also gave an inhibition at 1 µM (PLK3) of -1.12%, an IC50 (FGFR3) of 977 nM and an inhibition at 1 µM (AMPKα1/β1/γ1) of 2.23%. The inhibition at 1 µM (JNK3) was -3.67%, the inhibition at 1 µM (BRAF[V600E]) was -1.68% and the inhibition at 1 µM (MINK) was 16.6%. The inhibition at 1 µM (FAK) was -0.41%, the inhibition at 1 µM (EPHA3) was -1.81% and the inhibition at 1 µM (RSK1) was -2.52%. It also gave an inhibition at 1 µM (AKT1) of 3.98%, an inhibition at 1 µM (MUSK) of -3.46% and an inhibition at 1 µM (JAK1) of -12.3%. For the same compound, the inhibition at 1 µM (AKT2) was 3.35%, the inhibition at 1 µM (RSK4) was 0% and the inhibition at 1 µM (DYRK3) was -12%. For the same compound, the inhibition at 1 µM (ITK) was 4.35%, the inhibition at 1 µM (ACK) was 4.18% and the inhibition at 1 µM (PDGFRβ) was -6.88%. For the same compound, the inhibition at 1 µM (JNK2) was 0.4%, the inhibition at 1 µM (Her4(ERBB4)) was 0.69% and the inhibition at 1 µM (SRM) was 5.29%. The inhibition at 1 µM (DCAMKL1) was 13.4%, the inhibition at 1 µM (CDK6/CycD1) was -9.58% and the inhibition at 1 µM (p38δ) was 13.9%. It also gave an inhibition at 1 µM (NEK1) of 1.39%.
